Source: patent US9937104B2, “Nanostructured antibacterial and remineralizing dental bonding agents and dental bonding systems” (UNIVERSITY OF MARYLAND, BALTIMORE, priority 2012, dated 2018)
Entries after “also recorded” stand apart in the source; their conditions may differ.

Legend:
[1] = test system: Human gingival fibroblasts (HGF); assay type: cell-based; settings: MTT
Protocol: Human gingival fibroblasts (HGF, ScienCell) were cultured in a fibroblast medium (FM). […] Then, HGF were seeded in 96-well plates at 5,000 cells per well. […] After 4 h, the unreacted dye was removed and 150 μL of dimethyl sulfoxide was added. Absorbance was measured via the microplate reader at 492 nm. […] Cells were also live/dead stained (Molecular Probes) and examined with fluorescence microscopy (TE2000-S, Nikon) as shown in FIG. 15B.

[2] = test system: S. mutans (ATCC 700610, UA159); test: MIC and MBC by serial microdilution; assay type: cell-based, Streptococcus mutans; settings: for MIC and MBC relative to QADM: compared with QADM
Protocol: MIC and MBC were measured using S. mutans (ATCC 700610, UA159, American Type Culture, Manassas, Va.). S. mutans is a cariogenic, aerotolerant anaerobic bacterium and the primary causative agent of dental caries (Loesche 1986). MIC and MBC were determined via serial microdilution assays (Imazato S et al. 2006; Huang L et al. 2011). Unpolymerized DMAHM or DMADM monomer was dissolved in brain heart infusion (BHI) broth (BD, Franklin Lakes, N.J.) to give a final concentration of 200 mg/mL. From these starting solutions, serial two fold dilutions were made into 1 mL volumes of BHI broth. 15 μL of stock S. mutans was added to 15 mL of BHI broth with 0.2% sucrose and incubated at 37° C. with 5% CO2. Overnight cultures of S. mutans were adjusted to 2×10^6 CFU/mL with BHI broth, and 50 μL of inocula was added to each well of a 96-well plate containing 50 μL of a series of antibacterial monomer dilution broths. BHI broth with 1×10^6 CFU/mL bacteria suspension without antibacterial agent served as negative control. Chlorhexidine diacetate (CHX) (Sigma, St. Louis, Mo.) served as positive control. The previously-synthesized QADM (Antonucci J M et al. 2012; Cheng L et al. 2012a) served as an antibacterial monomer control. After incubation at 37° C. in 5% CO2 for 48 h, the wells were read for turbidity, referenced by the negative and positive control wells. MIC was determined as the endpoint (the well with the lowest antibacterial agent concentration) where no turbidity could be detected with respect to the controls (Huang L et al. 2011). To determine MBC, an aliquot of 50 μL from each well without turbidity was inoculated on BHI agar plates and incubated at 37° C. in 5% CO2 for 48 h. MBC was determined as the lowest concentration of antibacterial agent that produced no colonies on the plate. The tests were performed in triplicate (Huang L et al. 2011).
The use of S. mutans (ATCC 700610, American Type Culture, Manassas, Va.) was approved by the University of Maryland. S. mutans is a cariogenic, aerotolerant anaerobic bacterium and the primary causative agent of dental caries (Deng et al. 2004). MIC and MBC were determined via serial microdilution assays (Imazato et al. 2006; Huang et al. 2011). Unpolymerized DMAHM or DMADDM monomer was dissolved in brain heart infusion (BHI) broth (BD, Franklin Lakes, N.J.) to a concentration of 200 mg/mL. From these starting solutions, serial two fold dilutions were made into 1 mL volumes of BHI broth. […] The wells were read for turbidity after incubation at 37° C. in 5% CO2 for 48 h, referenced by the negative and positive control wells. MIC was defined as the endpoint (the well with the lowest antibacterial agent concentration) where no turbidity could be detected with respect to the controls (Huang et al. 2011). […]

[3] = test system: mature biofilms (48 hours); test: Mature biofilm (48 hours) CFU, antibacterial monomers in primer and adhesive; assay type: cell-based; settings: 10% mass fraction in primer and adhesive (P&A control)
Protocol: FIG. 29. Effect of antibacterial monomers from Table 1, with chain length (CL) of 3, 6, 9, 12, 16 and 18, on mature biofilms (48 hours). Each monomer was mixed into the primer and adhesive control (P&A control) at 10% mass fraction (mean+−sd; n=6). […] CL=16 reduced the biofilm CFU by 4 orders of magnitude, compared to control.
FIG. 31. Effect of mass fraction of the antibacterial monomer DMAHDM (with chain length of 16) on mature biofilms (48 hours) (mean+−sd; n=6). […] DMAHDM at 10% mass fraction reduced the biofilm CFU by nearly 4 orders of magnitude, compared to control.

| MBC and MIC potency relative to chain length 12 ([2]; compared with chain length 12 monomer) | SMILES | Cytotoxicity compared with BisGMA [1] | MIC and MBC relative to those of DMAHM ([2]; S. mutans, compared with DMAHM) | MIC and MBC relative to QADM ([2]; S. mutans) | Reduction of mature biofilm CFU compared to control [3] |
| --- | --- | --- | --- | --- | --- |
|  | C=C(C)C(=O)OCC[N+](C)(C)CCCCCCCCCCCC.[Br-] [DMADDM, dimethylamino dodecyl methacrylate] | less cytotoxic | more than two orders of magnitude lower; also recorded: three orders of magnitude lower | four orders of magnitude lower |  |
| an order of magnitude more potent | C=C(C)C(=O)OCC[N+](C)(C)CCCCCCCCCCCCCCCC.[Br-] [DMAHDM, dimethylamino hexadecyl methacrylate] |  |  |  | 4 orders of magnitude |
|  | C=C(C)C(=O)OCC[N+](C)(C)CCCCCC.[Br-] [DMAHM] |  |  | a lower concentration, by an order of magnitude |  |
|  | C=C(C)C(=O)OCCCCCCCCCCCC[n+]1ccccc1.[Br-] [MDPB, reference compound] | less cytotoxic |  |  |  |
